Like-named read-outs stand apart in the source and are kept apart here.
Columns and labels:
[1] = Dose linearity and effect of feeding, PK in cats (Example 10); type: in vivo, cat; conditions: for Tmax / half-life / AUC(0-t) / AUC(0-inf) / Cmax: serum, po; for AUC(0-inf): read-out: AUC0-∞; for Cmax: read-out: Cmax
Method: Grapiprant was blended in a mixture of excipients as shown in Table 14 and administered orally by capsule to male and female cats.
The day of dosing was defined as Day 0. Following dosing, the animals were evaluated for clinical signs. Blood samples were collected prior to dosing and at 0.25, 0.5, 1, 2, 4, 8, 12, and 24-hours postdose. The blood samples were processed to serum and analyzed for grapiprant concentration. There were no test article-related clinical signs. The mean grapiprant pharmacokinetic results were as follow in Table 16.

[2] = system: thermal hyperalgesia induced by intraplantar injection of PGE2; conditions: oral administration; cited from earlier work
[3] = system: meniscal release model of osteoarthritis; assay: Meniscal release model of osteoarthritis in dogs (Example 8); type: in vivo
Method: Twenty intact adult female hounds underwent surgical meniscal release of the right stifle and were maintained for at least 8 weeks to allow osteoarthritis to develop. […] Animals were randomized into three groups: negative control (n=6), positive control (n=7) treated with 5 mg/kg firocoxib daily, and grapiprant (n=7) dosed once daily at 30 mg/kg. Dosing was based on baseline bodyweight.
Baseline physical exams, bodyweights, hematology, serum chemistry and urinalysis were obtained on study Day −1 and repeated on Day 13. Orthopedic assessments were conducted on Day −1, Day 2, Day 6, and Day 13, including a kinetics assessment using the GAITRite system to determine left hindlimb: right hindlimb ratios for peak pressure, stride length, step length, and stance time, a 5-point scale lameness evaluation, VAS assessments of right hindlimb function, right stifle pain and effusion, and comfortable range of motion measurements of both stifles using a goniometer.

[4] = female, 2 mg/kg, cats, Group 1, 2 mg/kg capsule, Fed, Female, mean
[5] = female, 2 mg/kg, cats, Group 2, 2 mg/kg capsule, Fasted, Female, mean
[6] = female, 6 mg/kg, cats, Group 3, 6 mg/kg capsule, Fasted, Female, mean
[7] = female, 10 mg/kg, cats, Group 4, 10 mg/kg capsule, Fasted, Female, mean
[8] = male, 2 mg/kg, cats, Group 1, 2 mg/kg capsule, Fed, Male, mean
[9] = male, 2 mg/kg, cats, Group 2, 2 mg/kg capsule, Fasted, Male, mean
[10] = male, 6 mg/kg, cats, Group 3, 6 mg/kg capsule, Fasted, Male, mean
[11] = male, 10 mg/kg, cats, Group 4, 10 mg/kg capsule, Fasted, Male, mean

What does the source list for CCc1nc2c(C)nc(C)cc2n1-c1ccc(CCNC(=O)NS(=O)(=O)c2ccc(C)cc2)cc1 [grapiprant, N-{2-[4-(2-ethyl-4,6-dimethyl-1H-imidazo[4,5-c]pyridin-1-yl)phenyl]ethyl}-N′-[(4-methylphenyl)sulfonyl]urea]?
Tmax ([1]; both sexes, 10 mg/kg, Group 4 fasted cats, single oral 10 mg/kg capsule, males and females, read-out: mean Tmax): 0.728 to 1.33 h; half-life ([1]; both sexes, 10 mg/kg, Group 4 fasted cats, single oral 10 mg/kg capsule, males and females, read-out: mean terminal half-life): 242 to 251 min; tolerability ([1]; cats, one-time oral capsule, 2 (fed and fasted), 6, and 10 mg/kg): well-tolerated with no test article-related clinical signs; dose linearity of exposure (AUC0-∞) ([1]; fasted cats, Groups 2-4, 2-10 mg/kg): roughly dose-linear but less than dose-proportional; AUC(0-t) [1, 4]: 990 ng·h/mL; AUC(0-inf) [1, 4]: 1070 ng·h/mL; Cmax [1, 4]: 327 ng/mL; Tmax ([1]; female, 2 mg/kg, cats, Group 1, 2 mg/kg capsule, Fed, Female, mean, read-out: Tmax): 1.33 h; half-life ([1]; female, 2 mg/kg, cats, Group 1, 2 mg/kg capsule, Fed, Female, mean, read-out: t1/2 (converted)): 144 min; AUC(0-t) [1, 5]: 2780 ng·h/mL; AUC(0-inf) [1, 5]: 2850 ng·h/mL; Cmax [1, 5]: 1630 ng/mL; Tmax ([1]; female, 2 mg/kg, cats, Group 2, 2 mg/kg capsule, Fasted, Female, mean, read-out: Tmax): 1.01 h; half-life ([1]; female, 2 mg/kg, cats, Group 2, 2 mg/kg capsule, Fasted, Female, mean, read-out: t1/2 (converted)): 88.2 min; AUC(0-t) [1, 6]: 6130 ng·h/mL; AUC(0-inf) [1, 6]: 6350 ng·h/mL; Cmax [1, 6]: 3110 ng/mL; Tmax ([1]; female, 6 mg/kg, cats, Group 3, 6 mg/kg capsule, Fasted, Female, mean, read-out: Tmax): 1.17 h; half-life ([1]; female, 6 mg/kg, cats, Group 3, 6 mg/kg capsule, Fasted, Female, mean, read-out: t1/2 (converted)): 299 min; AUC(0-t) [1, 7]: 10700 ng·h/mL; AUC(0-inf) [1, 7]: 10900 ng·h/mL; Cmax [1, 7]: 7130 ng/mL; Tmax ([1]; female, 10 mg/kg, cats, Group 4, 10 mg/kg capsule, Fasted, Female, mean, read-out: Tmax): 0.73 h; half-life ([1]; female, 10 mg/kg, cats, Group 4, 10 mg/kg capsule, Fasted, Female, mean, read-out: t1/2 (converted)): 251 min; AUC(0-t) [1, 8]: 1030 ng·h/mL; AUC(0-inf) [1, 8]: 1220 ng·h/mL; Cmax [1, 8]: 407 ng/mL; Tmax ([1]; male, 2 mg/kg, cats, Group 1, 2 mg/kg capsule, Fed, Male, mean, read-out: Tmax): 1.65 h; half-life ([1]; male, 2 mg/kg, cats, Group 1, 2 mg/kg capsule, Fed, Male, mean, read-out: t1/2 (converted)): 187 min; AUC(0-t) [1, 9]: 2290 ng·h/mL; AUC(0-inf) [1, 9]: 1970 ng·h/mL; Cmax [1, 9]: 1100 ng/mL; Tmax ([1]; male, 2 mg/kg, cats, Group 2, 2 mg/kg capsule, Fasted, Male, mean, read-out: Tmax): 1.01 h; half-life ([1]; male, 2 mg/kg, cats, Group 2, 2 mg/kg capsule, Fasted, Male, mean, read-out: t1/2 (converted)): 130 min; AUC(0-t) [1, 10]: 3650 ng·h/mL; AUC(0-inf) [1, 10]: 3750 ng·h/mL; Cmax [1, 10]: 2970 ng/mL; Tmax ([1]; male, 6 mg/kg, cats, Group 3, 6 mg/kg capsule, Fasted, Male, mean, read-out: Tmax): 0.99 h; half-life ([1]; male, 6 mg/kg, cats, Group 3, 6 mg/kg capsule, Fasted, Male, mean, read-out: t1/2 (converted)): 167 min; AUC(0-t) [1, 11]: 7430 ng·h/mL; AUC(0-inf) [1, 11]: 7580 ng·h/mL; Cmax [1, 11]: 4280 ng/mL; Tmax ([1]; male, 10 mg/kg, cats, Group 4, 10 mg/kg capsule, Fasted, Male, mean, read-out: Tmax): 1.33 h; half-life ([1]; male, 10 mg/kg, cats, Group 4, 10 mg/kg capsule, Fasted, Male, mean, read-out: t1/2 (converted)): 242 min; ED50, reduction of thermal hyperalgesia [2]: 12.8 mg/kg; safety ([3]; 30 mg/kg): considered safe for at least a 14-day treatment period; lameness scores ([3]; 30 mg/kg once daily): lower lameness scores in the grapiprant treated group on Day 2 compared to the negative and positive control groups; pain scores ([3]; 30 mg/kg once daily): statistically significant lower pain scores on Days 2 and 6 compared to baseline; serum total protein, albumin, and globulin ([3]; 30 mg/kg once daily): decreases in mean total protein, albumin, and globulin; amelioration of lameness and pain ([3]; 30 mg/kg over 14 days): effective at day 2 in ameliorating lameness and pain
